We go through twelve molecules from patent US20260109714A1, “PYRIMIDINE-FUSED RING COMPOUND, AND PREPARATION METHOD THEREFOR AND USE THEREOF” (GENFLEET THERAPEUTICS (SHANGHAI) INC., priority 2022, published 2026).

The test system of assay [1] is AGS human gastric cancer cell line with KRAS G12D mutation. Put plainly: Cell proliferation inhibition experiment, 3D CellTiter-Glo, AGS. The assay is classed as cell-based. The conditions noted are these: AGS cells, 3D spheroid, 5 days. From the text:
(§1) AsPC-1 was purchased from ATCC, Article No.: CRL-1682; AGS was purchased from ATCC, Article No.: CRL-1739; RPMI1640 was purchased from Gibco, Article No.: 11875-093 2235123; F12K was purchased from Gibco, Article No.: 21127-022; FBS was purchased from Gibco, Article No.: 10099-141C; the trypsin (containing EDTA) was purchased from Gibco, Article No.: 25200-072; CellTiter Glo-3D was purchased from Progema, Article No.: G9683; the 384-well spheroid plate was purchased from Corning, Article No.: 3830; the white-bottom opaque 384-well plate was purchased from Corning, Article No.: 3570; the cell counter was purchased from CHEMOMETEC, model: NC-200; the microplate reader was purchased from PerkinElmer, model: Envison;
(§2) AsPC-1, an endogenous human pancreatic cancer cell AsPC-1 with KRAS^G12D mutation, was cultured in RPMI-1640 medium containing 10% FBS. AGS, a human gastric cancer cell line with KRAS^G12D mutation, was cultured in F-12K medium containing 10% FBS. Cells in logarithmic growth period were digested with trypsin (containing EDTA), collected and counted. 800 AsPC-1 cells/well or 400 […] were inoculated in a 384-well spheroid plate, and cultured overnight in an incubator with 5% CO2 to establish a 3D cell model. 1000× compound stock solutions with gradient concentrations of 3.16 times were prepared with DMSO, and 100-fold diluted to 10× compound stock solutions with the culture medium. The 10× compound stock solution was added to each cell culture well on the second day after cell inoculation, to give a final concentration of 1× and DMSO content of 0.1%. DMSO was used as the control, and the culture medium was used as the blank. After the compound was added, the cells were cultured for 5 days. 30 μl CellTiter-Glo working solution was added to each well, and mixed uniformly. The cells were incubated for 30 min, and allowed to stand at room temperature for 30 min. 40 μl of the mixture was transferred to a white-bottom opaque 384-well plate, and the luminescence was read on a microplate reader. The inhibition rate on cell proliferation was calculated by a formula: IR (%)=(RLU of control−RLU of compound)/(RLU of control−RLU of blank)×100%. The gradient concentrations of the compound and the corresponding inhibition rates were fitted by using XLFit four-parameter method, and the IC50 value was calculated. […] The results of some exemplary compounds are shown in Table 2 below (—means not tested).
In general terms: In ATP-based viability assays light output follows the ATP content of the culture.

In assay [2] the test system is AsPC-1 human pancreatic cancer cell with KRAS G12D mutation. Nature of the assay: Cell proliferation inhibition experiment, 3D CellTiter-Glo, AsPC-1. In kind it is cell-based. The conditions noted are these: AsPC-1 cells, 3D spheroid, 5 days.
Description: as §1, §2

The test system of another assay is AGS p-ERK. Put plainly: Cell assay for p-ERK (HTRF, Advance ERK phospho-T202/Y204 kit). In kind it is cell-based, human. The conditions noted are these: AGS cells (KRAS G12D), 3 hrs with compound, inhibition of p-ERK level. On the procedure:
AGS was purchased from ATCC, Article No.: CRL-1739; F12K was purchased from Gibco, Article No.: 21127-022; FBS was purchased from Gibco, Article No.: 10099-141C; the trypsin (containing EDTA) was purchased from Gibco, Article No.: 25200-072; DMSO was purchased from VWRAMRESCO, Article No.: 0231-500ML; the 96-well cell culture plate was purchased from Corning, Article No.: 3599; the white-bottom opaque 96-well plate was purchased from Cisbio, Article No.: 66PL96025; Advance ERK phospho-T202/Y204 kit was purchased from Cisbio, Article No.: 64AERPEH; the cell counter was purchased from CHEMOMETEC, model: NC-200; the microplate reader was purchased from PerkinElmer, model: Envison.
AGS, an endogenous human gastric adenocarcinoma cell line with KRAS^G12D mutation, was cultured in F12K+10% FBS medium. On the first day of the experiment, cells in logarithmic growth period were digested with trypsin (containing EDTA), collected and counted, and about 20,000 cells/well were inoculated in a 96-well cell culture plate and cultured overnight in an incubator with 5% CO2. 1000× compound stock solutions with gradient concentrations of 3.16 times were prepared with DMSO, and 200-fold diluted to 5× compound stock solutions with the above culture medium. The 5× compound stock solution was added to each cell culture well on the second day after cell inoculation, to give a final concentration of 1× and DMSO content of 0.1%. DMSO was used as experimental control. After adding the compound, the cells were continuously cultured for 3 hrs. Then, the culture medium in the well was removed, and 50 μl/well of cell lysis buffer (from Advanced ERK phospho-T202/Y204 kit, the same hereinafter) was added, and mixed uniformly. The cells were cultured for 30 min. Then 16 μl of the mixture was transferred to a white-bottom opaque 96-well plate, and 16 μl of the cell lysis buffer was added to an additional well and used as a blank. After that, 4 μl of p-ERK HTRF antibody mixed solution (from Advanced ERK Phos Pho-T202/Y204 Kit) was added to each well. After incubation for 4 hrs, the fluorescence value (RLU) of HTRF was read on a microplate reader. The inhibition rate of the compound on p-ERK level was calculated by the formula IR (%)=(RLU of control−RLU of compound)/(RLU of control−RLU of blank)×100%. The compound concentration and the corresponding inhibition rate on p-ERK level in the cells were fitted by using Prism 8 four-parameter method, and the IC50 value was calculated.
Background: In TR-FRET formats the signal depends on donor and acceptor labels being close together.

As a reminder, the IC50 is the midpoint of a concentration-inhibition curve. With `C#Cc1cccc2cccc(-c3nc4c5c(nc(OC[C@@]67CCCN6CCC7=C)nc5c3F)N3C[C@H]5CC[C@H](N5)[C@H]3[C@H](C)O4)c12` (single isomer, unassigned) [Z702], the 50% inhibitory concentration (IC50) was determined as 26.8 nM in assay [1], 51.9 nM in assay [2] and 11.1 nM with AGS p-ERK.
As for `C#Cc1cccc2cc(N)c(F)c(-c3nc4c5c(nc(OCC6(CN7CCOCC7)CC6)nc5c3F)N3C[C@H]5CC[C@H](N5)[C@H]3[C@H](C)O4)c12` [Z707, 5-ethynyl-3-fluoro-4-((5S,5aS,6S,9R)-1-fluoro-5-methyl-12-((1-(morpholinemethyl)cyclopropyl)methoxy)-5a,6,7,8,9,10-hexahydro-5H-4-oxa-3,10a,11,13,14-pentaaza-6,9-methanonaphtho[1,8-ab]hepten-2-yl)naphthalen-2-amine], the concentration for half-maximal inhibition (IC50) in assay [1] came out at 7.44 nM; in assay [2], 5.24 nM; with AGS p-ERK it was 0.95 nM.
As for `C#Cc1cccc2cc(N)cc(-c3nc4c5c(nc(OCC67CCCN6CC(=C(F)F)C7)nc5c3F)N3C[C@H]5CC[C@H](N5)[C@H]3[C@H](C)O4)c12` (stereo partly drawn) [Z747], in the assay with AGS p-ERK (Homo sapiens), the IC50 came to 0.37 nM.
For `C#Cc1cccc2cc(N)cc(-c3nc4c5c(nc(OCC6(CN7CCC(=C(F)F)C7)CC6)nc5c3F)N3C[C@H]5CC[C@H](N5)[C@H]3[C@H](C)O4)c12` [Z744], the IC50 in assay [1] (Homo sapiens, 120 h) was determined as 2.86 nM; in assay [2] (Homo sapiens, ASPC1, 120 h) it was 1.99 nM; in the assay with AGS p-ERK (Homo sapiens), 0.51 nM.
Turning to `[2H]C([2H])([2H])[C@@H]1Oc2nc(-c3cc(N)cc4cccc(C#C)c34)c(F)c3nc(OC[C@@]45CCCN4CC(=C(F)F)C5)nc(c23)N2C[C@H]3CC[C@H](N3)[C@@H]12` [Z1044, 4-((5S,5aS,6S,9R)-12-(((S)-2-(difluoromethylene)tetrahydro-1H-pyrrolizin-7a(5H)-yl)methoxy)-1-fluoro-5-(methyl-d3)-5a,6,7,8,9,10-hexahydro-5H-4-oxa-3,10a,11,13,14-pentaaza-6,9-methanonaphtho[1,8-ab]hepten-2-yl)-5-ethynylnaphthalen-2-amine], the IC50 in assay [1] (Homo sapiens, 120 h) amounted to 0.53 nM; in assay [2] (Homo sapiens, ASPC1, 120 h), 0.92 nM; in the assay with AGS p-ERK (Homo sapiens) it was 0.34 nM.
For `C[C@@H]1Oc2nc(-c3cc(N)cc4ccc(F)c(F)c34)c(F)c3nc(OC[C@]45CCCN4CC(F)(F)C5)nc(c23)N2C[C@H]3CC[C@H](N3)[C@@H]12` [Z740, 4-((5S,5aS,6S,9R)-12-(((R)-2,2-difluorotetrahydro-1H-pyrrolizin-7a(5H)-yl)methoxy)-1-fluoro-5-methyl-5a,6,7,8,9,10-hexahydro-5H-4-oxa-3,10a,11,13,14-pentaaza-6,9-methanonaphtho[1,8-ab]heptan-2-yl)-5,6-difluoronaphthalen-2-amine], in that order: 18 nM, 26 nM and 6.08 nM.
Consider `[2H]C([2H])([2H])[C@@H]1Oc2nc(-c3cc(N)cc(Cl)c3C(F)(F)F)c(F)c3nc(OC[C@]45CCCN4CCC5=C(F)F)nc(c23)N2C[C@H]3CC[C@H](N3)[C@@H]12` [Z1072, 3-chloro-5-((5S,5aS,6S,9R)-12-(((R)-1-(difluoromethylene)tetrahydro-1H-pyrrolizin-7a(5H)-yl)methoxy)-1-fluoro-5-(methyl-d3)-5a,6,7,8,9,10-hexahydro-5H-4-oxo-3,10a,11,13,14-pentaaza-6,9-methanonaphtho[1,8-ab]hepten-2-yl)-4-(trifluoromethyl) aniline], for which the IC50 in assay [1] (Homo sapiens, 120 h) was determined as 0.5 nM; in assay [2] (Homo sapiens, ASPC1, 120 h), 2.26 nM.
In the case of `C#Cc1c(F)ccc2cccc(-c3cc4nc(OC[C@]56CCCN5CCC6=C)nc5c4c(n3)O[C@@H](C)[C@@H]3[C@@H]4CC[C@H](CN53)N4)c12` [Z958, (5S,5aS,6S,9R)-2-(8-ethynyl-7-fluoronaphthalen-1-yl)-5-methyl-12-(((R)-1-methylenetetrahydro-1H-pyrrolizin-7a(5H)-yl)methoxy)-5a,6,7,8,9,10-hexahydro-5H-4-oxy-3,10a,11,13,14-pentaaza-6,9-methanonaphtho[1,8-ab]heptene], the 50% inhibitory concentration (IC50) in assay [1] (Homo sapiens, 120 h) was 45.6 nM; in assay [2] (Homo sapiens, ASPC1, 120 h) it was 69.5 nM; in the assay on AGS p-ERK (Homo sapiens), 29.2 nM.
For the molecule “6-((5S,5aS,6S,9R)-12-(((R)-1-(difluoromethylene)tetrahydro-1H-pyrrolizin-7a(5H)-yl)methoxy)-1-fluoro-5-(methyl-d3)-5a,6,7,8,9,10-hexahydro-5H-4-oxa-3,10a,11,13,14-pentaaza-6,9-methanonaphtho[1,8-ab]hepten-2-yl)-4-methyl-5-(trifluoromethyl)pyridine-2-amine [Z1295]”, the IC50 in the assay on AGS p-ERK worked out at 13.9 nM.
Regarding `C#Cc1c(F)ccc2cccc(-c3nc4c5c(nc(OC[C@]67CCCN6CCC7=C)nc5c3F)N3C[C@H]5CC[C@H](N5)[C@H]3C(CF)O4)c12` (stereo partly drawn) [Z746, (5aS,6S,9R)-2-(8-ethynyl-7-fluoronaphthalen-1-yl)-1-fluoro-5-(fluoromethyl)-12-(((R)-1-methylenetetrahydro-1H-pyrrolizin-7a(5H)-yl)methoxy)-5a,6,7,8,9,10-hexahydro-5H-4-oxa-3,10a,11,13,14-pentaaza-6,9-methanonaphtho[1,8-ab]heptene], the IC50 with AGS p-ERK (Homo sapiens) is 17.1 nM.
With `C=C1CN2CCCC2(COc2nc3c4c(nc(-c5cccc6cccc(Cl)c56)c(F)c4n2)OC(CC)[C@@H]2[C@@H]4CC[C@H](CN32)N4)C1` (stereo partly drawn) [Z596, (5S,5aS,6S,9R)-2-(8-chloronaphthalen-1-yl)-5-ethyl-1-fluoro-12-((2-methylenetetrahydro-1H-pyrrolizin-7a(5H)-yl)methoxy)-5a,6,7,8,9,10-hexahydro-5H-4-oxy-3,10a,11,13,14-pentaaza-6,9-methanonaphtho[1,8-ab]heptene], the IC50 in assay [1] (Homo sapiens, 120 h) worked out at 268 nM; in assay [2] (Homo sapiens, ASPC1, 120 h) it was 411 nM.
For `C#Cc1c(F)ccc2cccc(-c3nc4c5c(nc(OC[C@]67CCCN6CCC7=C)nc5c3F)N3C[C@H]5CC[C@H](N5)[C@H]3[C@@H](C(F)F)O4)c12` [Z736, (5S,5aS,6S,9R)-5-(difluoromethyl)-2-(8-ethynyl-7-fluoronaphthalen-1-yl)-1-fluoro-12-(((R)-1-methylenetetrahydro-1H-pyrrolizin-7a(5H)-yl)methoxy)-5a,6,7,8,9,10-hexahydro-5H-4-oxa-3,10a,11,13,14-pentaaza-6,9-methanonaphtho[1,8-ab]heptene], in that order: 389 nM and 254 nM.
